Results as given in patent US20260125426A1, “CYCLIC CELL-PENETRATING PEPTIDES AND USES THEREOF” (Ohio State Innovation Foundation, priority 2022, published 2026).
Values joined by “and” are separate entries in the source; they are usually repeats but may differ in a detail not shown here. Equal entries are not always repeated. *1 amine or outer side, *2 acyl side, *3 side chain or, on linkers, in order; H or OH if unused. Bridges are numbered along the chain shown (N, C = ends). Bi = bismuth bicyclization of the Cys thiols (peptides reacted with BiBr3), [Bi]([*:1])([*:2])[*:3]; Lys(dye) = not defined here; AEEA = NCCOCCOCC(=O)O

Experiments:
[1] = Proteolytic stability in 25% human serum (UPLC-MS); format: in vitro ADME; conditions: 100 μM peptide, 25% human serum in PBS, 37° C.; read-out: Serum t1/2
Protocol: Proteolytic Stability of BCP4, BCP16, and pBCP427-4. BCPs (100 μM) were incubated in 25% human serum diluted in phosphate-buffered saline for 24 h at 37° C. One hundred-μL aliquots were withdrawn from the mixture at various time points and mixed with 200 μL of 1:1 (v/v) 15% trichloroacetic acid in methanol and acetonitrile. The samples were centrifuged for 5 min in a microcentrifuge and stored at 4° C. until analysis by UPLC-MS equipped with a C-18 column. The column was eluted with a linear gradient of 5-100% acetonitrile in water containing 0.1% TFA over 7.5 min and the eluant was monitored at 214 nm. The area underneath the peak for any remaining BCP was integrated and compared to that at time 0 and the percentage of remaining BCP was plotted as a function of the incubation time. When integration of the UV absorbance was not possible due to overlapping of the peptide signal with that of serum proteins, the signal abundance from the mass spectrum was used to estimate the % peptide remaining.
Proteolytic Stability of pBCP427-4 and pBCP427-4Ala. BCPs (100 μM) were incubated in 25% human serum diluted in phosphate-buffered saline for 24 h at 37° C. […] The column was eluted with a linear gradient of 5-100% acetonitrile in water containing 0.1% TFA over 7.5 min and the eluant was monitored at 214 nm.

NIH 3T3 cells = test: Confocal microscopy of NIH 3T3 cells; format: cell-based; conditions: 2 μM peptide, 37° C., 2 h
Protocol: The cytosolic entry efficiencies of CPP12, BCP16a, BCP16b, and pBCP427-4a were also assessed by confocal microscopy of NIH 3T3 cells after treatment with 2 μM peptide at 37° C. for 2 h.

HeLa cells [2] = test: Flow cytometry of HeLa cells, cytosolic entry of NF-labeled peptides; format: cell-based; conditions: for MFI^NF (Cytosolic Entry): relative to CPP12 (100%)
Protocol: (§1) Flow cytometry. HeLa cells were cultured in 12-well plates (1.5×10^5 cells/well) overnight. The following day, cells were incubated with 5 μM fluorescently labeled peptide for 2 h in DMEM supplemented with 1% FBS and 1% antibiotic solution. DMSO was used as a negative control. After incubation, cells were detached from plate with 350 μL of 0.25% Trypsin-EDTA solution, diluted with Dulbecco's phosphate buffered saline (DPBS), and pelleted at 300 g for 5 min. Cells were washed twice with DPBS, resuspended in DPBS, and analyzed on a BD FACS LSR II flow cytometer.
(§2) To evaluate their cell entry efficiencies, the BCPs and pBCPs were labeled with tetramethylrhodamine (TMR) or naphthofluorescein (NF) on a C-terminal lysine residue (FIGS. 2A, 2B, and 4). […] The labeled peptides were purified again by reversed-phase HPLC and their authenticity was confirmed by high-resolution mass spectrometry.
(§3) HeLa cells were treated with 5 μM dye-labeled BCPs (or pBCPs), CPP12, Tat, or DMSO (equal volume) for 2 h at 37° C., washed to remove any peptides in the medium, and analyzed by flow cytometry. The mean fluorescence intensity (MFI) value of TMR (which is pH insensitive) reflects the total amount of CPP inside the HeLa cells (total cellular uptake). On the other hand, NF is a pH sensitive dye, having an apparent pKa of 7.8. NF is unprotonated and fluorescent inside the neutral environment of the cytosol (and nucleus) but is nearly completely protonated and nonfluorescent in the acidic environments of endosomes and lysosomes. Thus, the MFI value of NF provides a convenient estimate of the peptides that have reached the cytosol.
Note that cell entry assays were performed by treating HeLa cell with 2 μM naphthofluorescein (NF)-labeled peptide for 2 h at 37° C. Under this condition, the BCPs enter the cell almost exclusively by endocytosis and endosomal escape. A small fraction of the CPP12^NF-treated cells (˜10%) underwent direct translocation of CPP12^NF; this fraction of highly fluorescent cells was not included in the data analysis. The cellular entry of pBCP427-4 was confirmed by live-cell confocal microscopy (FIG. 6).
BCP16a, BCP16b, and pBCP427-4a were labeled with NF and their cytosolic entry efficiencies were assessed by flow cytometry analysis of HeLa cells after treatment with 2 μM peptide at 37° C. for 2 h. […] CPP12 was previously shown to be highly sensitive to serum proteins (Buyanova, M., et al., (2022). Discovery of a Cyclic Cell-Penetrating Peptide with Improved Endosomal Escape and Cytosolic Delivery Efficiency. Molecular pharmaceuties, 19 (5). 1378-1388).

HEK293T cells = test: Cytotoxicity, Promega CellTiter-Glo 2.0 assay, HEK293T; format: cell-based; conditions: 72 h, read-out: IC50 (concentration at which 50% of cells are nonviable)
Protocol: (§4) Cytotoxicity of BCPs. The cytotoxicity of pBCP427-4 and BCP16 was tested 20) against HeLa and HEK293T cell lines by using Promega's Cell-Glo assay. The cells were seeded in a 96-well plate (5000 cells/well) in 100 μL of DMEM supplemented with 10% FBS and 1% penicillin/streptomycin. The following day. 10 μL of peptide of various concentrations was added to the cells. A row of wells was treated with DMSO as a control. After 72 h, all wells were treated with an equal volume (110 μL) of Promega CellTiter-Glo 2.0 assay solution and shaken for 30 min. Luminescent signal was measured on a Tecan Infinite Pro plate reader.

HeLa cells [3] = test: Live-cell confocal microscopy of HeLa cells; format: cell-based
Protocol: Confocal microscopy. HeLa cells (5×10^5 cells/mL in 300 μL volume) were cultured overnight in DMEM (10% FBS, 1% antibiotic solution) in a Grenier Bio-One 35/10 mm glass-bottomed microwell dish with four compartments. The following day, cells were incubated with 5 μM fluorescently labeled peptide for 2 h in phenol-red free DMEM (1% FBS, 1% antibiotic solution) and washed with warm media prior to imaging. Cells were imaged on a Nikon A1R live-cell confocal laser scanning microscope (ECLIPSE Ti-E automated, inverted) equipped with a 100× oil objective (1.45 N.A.) and a heated chamber (37° C.) supplied with 5% CO2. TMR-labeled peptides were imaged by excitation with a λEx of 561 nm. Differential interference contrast (DIC) images were obtained to validate the morphology of cells.
The cellular entry of BCP1-3 was further confirmed by live-cell confocal microscopy. HeLa cells were incubated with 5 μM TMR-labeled peptide for 2 h in the presence of 1% FBS in media. The cells were washed twice with fresh media and imaged without fixation.
To assess cellular delivery by confocal microscopy, HeLa cells were cultured overnight in a 4-well, 35-mm glass bottom microscope dish at a density of 50,000 cells/mL (300 μL per well). The following day, the cells were washed twice with DPBS and incubated with 5 μM protein for 4 h in phenol red free DMEM with 1% FBS. […]

HeLa cells [4] = test: Cytotoxicity, Promega CellTiter-Glo 2.0 assay, HeLa; format: cell-based; conditions: 72 h, read-out: IC50 (concentration at which 50% of cells are nonviable)
Protocol: as §4

HeLa cells [5] = test: Flow cytometry of HeLa cells, total cellular uptake of TMR-labeled peptides; format: cell-based; conditions: 5 μM TMR-labeled peptide, 2 h, 37° C., relative to CPP12 (100%)
Protocol: as §1, §2, §3

Keap1 = Keap1 (Homo sapiens, UniProt Q14145); conditions: read-out: KD for Keap1; cited from earlier work
Sequence of Keap1 (Q14145 whole entry, species assumed): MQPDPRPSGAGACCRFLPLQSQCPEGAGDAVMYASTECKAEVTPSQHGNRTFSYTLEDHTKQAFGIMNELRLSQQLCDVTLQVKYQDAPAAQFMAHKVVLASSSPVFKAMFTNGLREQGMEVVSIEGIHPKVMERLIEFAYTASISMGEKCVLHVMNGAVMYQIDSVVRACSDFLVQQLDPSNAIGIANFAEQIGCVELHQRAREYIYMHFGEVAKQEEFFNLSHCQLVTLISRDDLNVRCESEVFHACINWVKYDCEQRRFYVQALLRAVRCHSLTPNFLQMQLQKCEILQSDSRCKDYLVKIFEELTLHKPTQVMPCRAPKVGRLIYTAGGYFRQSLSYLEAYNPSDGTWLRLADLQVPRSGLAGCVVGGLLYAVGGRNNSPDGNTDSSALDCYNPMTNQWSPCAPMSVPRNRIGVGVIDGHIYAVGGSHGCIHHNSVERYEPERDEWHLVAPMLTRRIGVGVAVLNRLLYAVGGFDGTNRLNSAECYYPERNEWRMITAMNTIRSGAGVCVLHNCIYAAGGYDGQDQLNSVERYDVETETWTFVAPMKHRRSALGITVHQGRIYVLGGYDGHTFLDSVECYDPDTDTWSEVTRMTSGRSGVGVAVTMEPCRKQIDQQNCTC

[6] = system: intracellular Keap1-Nrf2 interaction; test: ARE reporter-HepG2 luciferase assay of CPP/BCP-K1 conjugates; format: cell-based; conditions: ARE-Reporter HepG2 cells, 10 μM peptide, 18 h
Protocol: Cytosolic Delivery of Peptidyl Cargo. […] An important role of Nrf2-ARE pathway in the cellular defense mechanism. Journal of biochemistry and molecular biology, 37(2), 139-1438). Under basal conditions, Nrf2 interacts with Keap1 and is retained in the cytosol or degraded by the proteasome. However, upon blocking the Keap1-Nrf2 interaction, Nrf2 accumulates and translocates into the nucleus, inducing the expression of luciferase.
One hundred μL of ARE-Reporter Hep G2 cells were seeded in a 96-well plate at 5000 cells/well in minimum essential media supplemented with 10% FBS and 1% penicillin/streptomycin. The following day, 10 μL of peptide of various concentrations was added to the cells to give final concentrations of 0.625-10 μM. Cells treated with DMSO were used as a control. After 18 h, the cells were treated with an equal volume (110 μL) of BPS bioscience ONE-Step luciferase assay solution and shaken for 30 min. The luminescent signal was measured on a Tecan Infinite Pro plate reader.

[7] = 2 μM NF-labeled peptide, 2 h, 37° C., 1% FBS

## CC(=O)N[C@@H](Cc1ccc(O)cc1)C(=O)NCC(=O)N[C@@H](CCCNC(=N)N)C(=O)N[C@@H](CCCCN)C(=O)N[C@@H](CCCCN)C(=O)N[C@@H](CCCNC(=N)N)C(=O)N[C@@H](CCCNC(=N)N)C(=O)N[C@@H](CCC(N)=O)C(=O)N[C@@H](CCCNC(=N)N)C(=O)N[C@@H](CCCNC(=N)N)C(=O)N[C@@H](CCCNC(=N)N)C(=O)NCCOCCOCC(=O)N[C@@H](CCCCNC(=O)c1ccc2c(c1)C(=O)OC21c2ccc3cc(O)ccc3c2Oc2c1ccc1cc(O)ccc21)C(N)=O [Tat]
[1]
  half-life at 100 μM: < 30 min

## Ac-cwsnwfcfqrrc [pBCP427-4a]
NIH 3T3 cells
  cytosolic entry by fluorescence intensity, compared with CPP12: less active than CPP12
HeLa cells [2]; [7]
  MFI^NF (Cytosolic Entry): 33% and 33 ± 1%
HeLa cells [2]; 2 μM NF-labeled peptide, 2 h, 37° C., 10% FBS, relative to CPP12
  cytosolic entry efficiency in the presence of 10% FBS: 85%

## CWSNWFCFQRRC [pBCP427-4]
HEK293T cells
  IC50: 16 µM
HeLa cells [2]; [7]
  MFI^NF (Cytosolic Entry): 189% and 189 ± 6%
HeLa cells [2]; 2 μM, pBCP427-4 vs pBCP427-4Ala
  improvement of cytosolic entry efficiency by bismuth cyclization: ~10 fold
HeLa cells [3]; 2 or 5 μM TMR-labeled peptide, 2 h, 37° C.
  cellular entry seen by live-cell confocal microscopy: confirmed
HeLa cells [4]
  IC50: > 50 µM

## CWYRRCRAC (Ac-CWYRRCRAC-{AEEA-Lys(dye)-NH2}; linker 1-6-9 via Bi (inferred); reading uncertain) [pBCP4]
HeLa cells [2]; 5 μM NF-labeled peptide, 2 h, 37° C.
  MFI^NF (Cytosolic Entry): 10 ± 4%
HeLa cells [5]
  MFI^TMR (Total Cellular Uptake): 11 ± 1%

## HS-CH2-CO-rRrRCΦ(Bta)φC [BCP16]
HEK293T cells
  IC50: 14 µM
HeLa cells [4]
  IC50: 49 µM

## cyclo(GQLDPETGEFL [K1]
Keap1
  Kd: 0.018 µM
[6]
  induction of luminescence signal: did not

## pBCP427-4-SEP: fusion protein of pBCP427-4 at the N-terminus of superecliptic-pHluorin (SEQ ID NO: 89) (MGSSGSSCWSNWFCFQRRC)
HeLa cells [3]; 5 μM protein, 4 h, 1% FBS
  GFP fluorescence inside the cell (protein delivery): intense GFP fluorescence inside the cell
